In US5028733A, “Prostaglandins” (National Research Development Corporation, priority 1980, dated 1991):

Columns and labels:
Format in all cases: cell-based
rabbit aorta [1] = assay: Rabbit aorta strip, antagonism of contraction by 11,9-(epoxymethano) PGH2 (affinity constant KB); conditions: for Kb: vs 11,9-(epoxymethano) PGH2, 37° C, compound added 30 min before, Gaddum-Schild, read-out: Affinity Constants, Rabbit Aorta (KB) (converted)
Description: Spiral strips of thoracic aorta are suspended in Kreb's-Henseleit solution and aerated with 95% O2 /5% CO2 at 37° C. Tension changes are recorded with a Glass FTO3 force transducer. Initially, cumulative dose response curves to 11,9-(epoxymethano) PGH2 (2×10^-9, 1×10^-8, 5×10^-8 and 2.5×10^-7 M) are obtained. In a second experiment the individual compounds are added 30 minutes previous to the addition of the series of agonist doses. In the case of each compound, the affinity constant, KB, for the compound is calculated according to the Gaddum - Schild Equation (based on Law of Mass Action).
(§1) [B]=molar concentration of compound

human platelets = biological target: T1, human platelets (Homo sapiens, UniProt P21731); assay: Human platelet system, antagonism of aggregation by 11,9-(epoxymethano) PGH2 (affinity constant KB); conditions: for Kb: vs 11,9-(epoxymethano) PGH2, compound added 5 min before, Gaddum-Schild, read-out: Affinity Constants, Human Platelets (KB) (converted)
T1 construct: Platelet-rich plasma is obtained from fresh, citrated human blood; endogenous in cells; host or cells: human platelets in platelet-rich plasma
T1 sequence (P21731 1-343): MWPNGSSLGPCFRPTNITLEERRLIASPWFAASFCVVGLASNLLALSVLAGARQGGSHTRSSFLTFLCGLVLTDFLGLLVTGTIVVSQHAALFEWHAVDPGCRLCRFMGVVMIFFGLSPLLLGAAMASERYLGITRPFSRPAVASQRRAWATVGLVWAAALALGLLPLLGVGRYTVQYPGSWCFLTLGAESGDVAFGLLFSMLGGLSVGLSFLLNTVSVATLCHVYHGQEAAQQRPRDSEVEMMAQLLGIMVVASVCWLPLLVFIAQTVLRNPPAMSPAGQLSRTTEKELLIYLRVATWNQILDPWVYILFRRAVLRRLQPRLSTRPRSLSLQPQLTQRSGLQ
Description: Platelet-rich plasma is obtained from fresh, citrated human blood. Addition of the 11,9-(epoxymethano) PGH2 (1×10^-7 to 5×10^-7 M) causes immediate aggregation recorded as an increase in light transmission (600 nm). In a second experiment the individual compounds are added five minutes previous to the addition of the PGH2 analogue. The dose of the PGH2 analogue added is then increased to a level which gives a similar response to that obtained in the absence of antagonist. The affinity constant, KB, for the compound is calculated according to the Gaddum - Schild Equation (based on Law of Mass Action).
as §1

platelet = assay: Block of the aggregatory action of arachidonic acid on platelets; conditions: in words
rabbit aorta [2] = assay: Block of the contractile action of noradrenaline in the rabbit aorta strip test; conditions: in words

| SMILES | Kb (human platelets) | Kb (rabbit aorta [1]) | further results |
| --- | --- | --- | --- |
| CC1(C)[C@H]2C[C@H](C=NNC(=S)Nc3ccccc3)[C@@H](C/C=C\CCCC(=O)O)[C@@H]1C2 | 2860 nM | 1670 nM | – |
| O=C(O)CCCC=CCC1C(O)CCC1C=NOCc1ccc(F)cc1 (centres unmarked) | – | 2500 nM | – |
| O=C(O)CCC/C=C\C[C@H]1[C@H]2CC[C@H](C2)[C@@H]1C=NNC(=S)Nc1ccccc1 (relative stereo) | 263 nM | 526 nM | – |
| CC(=NNC(=S)Nc1cccc(F)c1)[C@H]1[C@@H]2CC[C@@H](C2)[C@@H]1C/C=C\CCCC(=O)O (relative stereo) | 45.5 nM | 70.4 nM | – |
| O=C(O)CCC/C=C\C[C@H]1C2CCC(CC2)[C@@H]1C=NNC(=O)Nc1ccccc1 (relative stereo) | – | 833 nM | – |
| COc1ccc(NC(=O)NN=C(C)[C@H]2C3CCC(CC3)[C@@H]2C/C=C\CCCC(=O)O)cc1 (relative stereo) | 55.6 nM | 55.6 nM | – |
| CC(=NNC(=S)Nc1ccccc1)[C@H]1C2CCC(CC2)[C@@H]1C/C=C\CCCC(=O)O (relative stereo) | 47.6 nM | 83.3 nM | – |
| O=C(O)CCC/C=C\C[C@@H]1CC=CC[C@H]1C=NNC(=S)Nc1ccccc1 (relative stereo) | 500 nM | 1100 nM | – |
| O=C(O)CCC/C=C\C[C@H]1[C@H]2CC[C@H](C2)[C@@H]1C=NN=C(c1ccccc1)c1ccccc1 (relative stereo) | – | 667 nM | – |
| O=C(O)CCC/C=C\C[C@H]1[C@H]2CC[C@H](C2)[C@@H]1C=NNc1nc2ccccc2o1 (relative stereo) | 5560 nM | 500 nM | – |
| O=C(O)CCC/C=C\C[C@H]1[C@H]2CC[C@H](C2)[C@@H]1C=NNC(=O)CN(Cc1ccccc1)Cc1ccccc1 (relative stereo) | – | 833 nM | – |
| Cc1ccc(S(=O)(=O)NN=C[C@H]2[C@@H]3CC[C@@H](C3)[C@@H]2C/C=C\CCCC(=O)O)cc1 (relative stereo) | 667 nM | 345 nM | – |
| O=C(O)CCC/C=C\C[C@@H]1CC=CC[C@H]1C=NOCc1ccc(F)cc1 (relative stereo) | 8330 nM | 385 nM | – |
| O=C(O)CCC/C=C\C[C@H]1[C@H]2CC[C@H](C2)[C@@H]1C=NNC(=S)NCc1ccccc1 (relative stereo) [Example 1, 5-endo-(6'-Carboxyhex-2'Z-enyl)-6-exo-[N-(benzylthiocarbamoyl)-hydrazonomethyl]-bicyclo [2,2,1] heptane] | – | – | antagonist in the rabbit aorta strip test (rabbit aorta [1]; in words): pure antagonists in the rabbit aorta strip test; antagonist in the platelet test (human platelets; in words): antagonists in the platelet test; aggregatory action of arachidonic acid (platelet): block the aggregatory action of arachidonic acid; contractile action of noradrenaline (α-adrenoceptors) (rabbit aorta [2]): do not block the contractile action of noradrenaline |

The next lines start with results.

| Kb (human platelets) | SMILES | Kb (rabbit aorta [1]) | further results |
| --- | --- | --- | --- |
| 909 nM | CC(=NNC(=O)Nc1ccccc1)[C@H]1C[C@H]2C[C@@H]([C@@H]1C/C=C\CCCC(=O)O)C2(C)C | 357 nM | – |
| 118 nM | COc1cccc(NC(=S)NN=C(C)[C@H]2[C@@H]3CC[C@@H](C3)[C@@H]2C/C=C\CCCC(=O)O)c1 (relative stereo) | 95.2 nM | – |
| 102 nM | COc1ccc(NC(=S)NN=C(C)[C@H]2[C@@H]3CC[C@@H](C3)[C@@H]2C/C=C\CCCC(=O)O)cc1 (relative stereo) | 213 nM | – |
| 189 nM | CC(=NNC(=S)Nc1cccc(C(F)(F)F)c1)[C@H]1[C@@H]2CC[C@@H](C2)[C@@H]1C/C=C\CCCC(=O)O (relative stereo) | 118 nM | – |
| 667 nM | CC(=NNC(=S)Nc1cccnc1)[C@H]1C2CCC(CC2)[C@@H]1C/C=C\CCCC(=O)O (relative stereo) | 256 nM | – |
| 3450 nM | Cn1c(=NN=C[C@H]2[C@@H]3CC[C@@H](C3)[C@@H]2C/C=C\CCCC(=O)O)sc2ccccc21 (relative stereo) | 1520 nM | – |
| 4350 nM | O=C(O)CCC/C=C\C[C@H]1[C@H]2CC[C@H](C2)[C@@H]1C=NOCCOC(c1ccccc1)c1ccccc1 (relative stereo) | 10000 nM | – |
| 256 nM | CCC(=NNC(=S)Nc1ccccc1)[C@H]1[C@@H]2CC[C@@H](C2)[C@@H]1C/C=C\CCCC(=O)O (relative stereo) [Example 3, 5-endo-(6'-Carboxyhex-2'Z-enyl)-6-exo-{1'-[N-(phenylthiocarbamoyl)-hydrazono]-propyl}-bicyclo [2,2,1] heptane] | – | – |
| 1280 nM | O=C(O)CCC/C=C\C[C@H]1[C@H]2CC[C@H](C2)[C@@H]1C=NNC(=S)NCc1ccccc1 (relative stereo) [drawing 41] | 526 nM | – |
| 50 nM | CC(=NNC(=S)Nc1ccccc1)[C@H]1[C@@H]2CC[C@@H](C2)[C@@H]1C/C=C\CCCC(=O)O (relative stereo) [drawing 42] | 90.9 nM | – |
| 2000 nM | CC1(C)[C@H]2C[C@H](C/C=C\CCCC(=O)O)C(C=NNC(=O)Nc3ccccc3)[C@@H]1C2 (single isomer, unassigned) | 333 nM | – |
